Experimental data: paper PMC12693135, “Ocular Toxicity and Mechanistic Investigation for Berberine and Its Metabolite Berberrubine on Zebrafish” (Molecules, 2025)

Experiments:
[1] = system: human corneal epithelial (HCE-T) cell line; test: MTT cytotoxicity assay on HCE-T cells; type: cell-based
Method: (§1) The human corneal epithelial cell line HCE-T (Cellosaurus accession: CVCL_1272, RRID: CVCL_1272, RCB: RCB2280) was purchased from Procell Life Science and Technology Co., Ltd. (Wuhan, China). […] were cultured in high-glucose Dulbecco’s Modified Eagle Medium (DMEM), which was purchased from Procell Life Science and Technology Co., Ltd. (Wuhan, China). The high-glucose DMEM was DMEM basic medium supplemented with 15% fetal bovine serum (Procell), 1% penicillin/streptomycin (Procell), 5 μg/mL insulin, and 10 ng/mL human epidermal growth factor (Procell).
(§2) HCE-T cells were seeded in 96-well plates (8 × 10^3 cells/well, 100 μL medium) and cultured overnight at 37 °C, 5% CO2 for adhesion. BBR or its metabolites at various concentrations (BBR and M3 at the concentrations of 31.25, 62.5, 125, 250 and 500 µM, M1 and M4 at the concentrations of 25, 50, 100, 200 and 400 µM) in 0.5% DMSO were added and incubated for 24 h, with 0.5% DMSO in culture medium as the vehicle control. Subsequently, 20 μL MTT (5 mg/mL) was added to each well and the cells were cultured at 37 °C for 4 h. Then, the culture medium was removed, and 150 μL DMSO was added to dissolve formazan crystals and the absorbance at 570 nm was measured on a Synergy H1 multifunctional microplate reader (Biotek, Winooski, VT, USA). The IC50 values of test compounds were calculated by Graphpad Prism 8.5 (GraphPad Software Co., San Diego, CA, USA).

[2] = MTT cytotoxicity assay on HCE-T cells; type: cell-based, human; settings: human, HCE-T human corneal epithelial cells; HCE-T cells, 24 h incubation
Method: as §1, §2

Q: Which IC50 [1] does the source give for `COc1ccc2cc3[n+](cc2c1OC)CCc1cc(O)c(O)cc1-3` [M3, demethyleneberberine] here?
A: > 400 µM

Q: For `COc1cc2c(cc1O)CC[n+]1cc3c(OC)c(OC)ccc3cc1-2` [M4, jatrorrhizine], which IC50 at 24 h [2] is on record?
A: > 400 µM
